Patent publication US20240217953A1, “BICYCLIC SUBSTITUTED AROMATIC CARBOXYLIC ACID COMPOUNDS” (CHIA TAI TIANQING PHARMACEUTICAL GROUP CO., LTD., priority 2021, published 2024)

Assays:
[1] = target: human complement Factor B protein (Homo sapiens, UniProt P00751); assay: Human complement Factor B protein binding determination (TR-FRET method); conditions: biotinylated Factor B 25 nM, Cy5-labeled probe 75 nM, PBS pH 7.4, 2 h
Protocol: To determine the binding activity of the test compounds to human complement Factor B protein by using TR-FRET method.
Drugs were added to phosphate buffered saline PBS (pH 7.4) starting at 10 μM with 4-fold dilution and 10 concentrations in total. […] Time-resolved fluorescence resonance energy transfer (TR-FRET) data was measured using 330 nm as the excitation wavelength and 665 nm as the emission wavelength.

[2] = target: complement alternative pathway in human serum; assay: Inhibition of Wieslab complement alternative pathway activation (enzyme activity determination); format: biochemical; conditions: human serum diluted 1:23, Wieslab alternative pathway kit, absorbance at 405 nm; read-out: IC50 for alternative pathway membrane attack complex (AP MAC)
Protocol: To determine the inhibitory activity of the test compounds against the complement alternative pathway in human serum by using a Wieslab complement system alternative pathway kit.
The serum was diluted with a diluent (1:23). Drugs were added to the diluted serum in 8 concentration gradients, with the highest concentration of 10 mM or 50 mM and 5-fold gradient dilution. The resulting mixture was incubated at room temperature for 15 min. The compound and the serum mixture were added to a 96-well plate (100 μL/well) provided in the kit and activated at 37° C. for 1 h. The mixture was washed three times with a washing buffer. The detection antibody (100 μL) provided in the kit was added and the mixture was incubated at room temperature for 30 min. The mixture was washed three times with a washing buffer. A substrate (100 μL) was added and the mixture was incubated at room temperature for 30 min. The absorbance at 405 nm was measured using a microplate reader.

[3] = Pharmacokinetic study in rats; format: in vivo; conditions: rat; male SD rats, oral intragastric administration, 10 mg/kg, plasma
Protocol: To determine the drug concentration in the plasma of the test animals (male SD rats) at different time points after oral intragastric administration of the compounds disclosed herein by an LC/MS/MS method. To investigate the pharmacokinetic performance of the compounds disclosed herein in rats and to evaluate the pharmacokinetic characteristics.
Healthy male rats weighing 200-300 g, 2 rats in each group.
The compound disclosed herein was formulated into a 1 mg/mL clear solution with an aqueous solution of 0.5% MC (4000 cP)/0.5% Tween 80. Rats, after fasting overnight, were subjected to oral intragastric administration at a dose of 10 mg/kg. Blood was collected before administration and 0.25, 0.5, 1, 2, 4, 7, and 24 h after the administration, placed in heparin anticoagulation tubes, and centrifuged at 7000 rpm (5204 g) at 4° C. The plasma was separated and stored at −80° C. Four hours after administration, feeding was resumed. LC/MS/MS method was used to determine the content of the test compound in the plasma of the rats after oral administration. The plasma samples were analyzed after pretreatment to precipitate proteins.

Sequence of human complement Factor B protein (P00751 26-764): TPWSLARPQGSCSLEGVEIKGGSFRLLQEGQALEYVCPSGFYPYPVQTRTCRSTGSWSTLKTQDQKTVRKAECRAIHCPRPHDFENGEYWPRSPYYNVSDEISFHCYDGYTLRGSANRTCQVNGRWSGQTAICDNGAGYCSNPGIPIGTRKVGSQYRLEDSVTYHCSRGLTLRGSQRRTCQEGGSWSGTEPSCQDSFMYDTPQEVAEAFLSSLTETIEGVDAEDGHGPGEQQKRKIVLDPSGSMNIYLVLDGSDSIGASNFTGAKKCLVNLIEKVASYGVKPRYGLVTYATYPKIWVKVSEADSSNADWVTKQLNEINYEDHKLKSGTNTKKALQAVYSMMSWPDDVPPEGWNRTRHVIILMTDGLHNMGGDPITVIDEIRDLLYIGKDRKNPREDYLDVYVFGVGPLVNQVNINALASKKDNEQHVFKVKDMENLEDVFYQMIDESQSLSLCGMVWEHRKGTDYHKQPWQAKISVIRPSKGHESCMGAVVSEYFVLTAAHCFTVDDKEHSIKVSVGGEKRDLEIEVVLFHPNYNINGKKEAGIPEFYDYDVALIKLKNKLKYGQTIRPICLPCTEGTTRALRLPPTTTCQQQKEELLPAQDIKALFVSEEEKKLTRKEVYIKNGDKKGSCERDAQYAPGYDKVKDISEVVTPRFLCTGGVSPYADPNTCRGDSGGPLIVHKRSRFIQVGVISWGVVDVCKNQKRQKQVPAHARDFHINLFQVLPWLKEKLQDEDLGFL

| Compound | IC50 [1] [nM] | IC50 [2] [nM] | other results |
| --- | --- | --- | --- |
| COc1cc(C)c2[nH]ccc2c1CN1C2CCCC1(c1ccc(C(=O)O)cc1)CC2 (single isomer, unassigned) [Compound 7A] | < 100 | < 100 |  |
| CCOC1CC2CCC(c3ccc(C(=O)O)nc3)(C1)N2Cc1c(OC)cc(C)c2[nH]ccc12 (stereo not drawn) [Compound 11] | < 100 |  |  |
| COc1cc(C)c2[nH]ccc2c1CN1CCC2CC1(c1ccc(C(=O)O)cc1)CCN2CC(F)F (stereo not drawn) [Compound 3] |  | < 100 |  |
| COc1cc(C)c2[nH]ccc2c1CN1C2CCC1(c1ccc(C(=O)O)cc1)CC(C)C2 (stereo not drawn) [Compound 12] | < 100 |  |  |
| COc1cc(C)c2[nH]ccc2c1CN1CCC2CC1(c1ccc(C(=O)O)cc1)CCN2CC(F)(F)F (stereo not drawn) [Compound 2] |  | < 100 | AUC(0-t) [3]: 14.7 µM·h; Cmax [3]: 3.25 µM; Tmax [3]: 30 min; half-life [3]: 279 min |
| CCOC1CC2CCC(c3ccc(C(=O)O)cn3)(C1)N2Cc1c(OC)cc(C)c2[nH]ccc12 (single isomer, unassigned) [Compound 9A] | < 100 | < 100 |  |
